Source: patent US20140378541A1, “Synthetic Epigallocatechin Gallate (EGCG) Analogs” (WAYNE STATE UNIVERSITY, priority 2011, published 2014)

Legend:
Format in all cases: cell-based, human
[1] = tested on: MDA-MB-231 cells; experiment: Combination with docetaxel or erlotinib, Western blot (PARP cleavage, p-EGFR), MDA-MB-231 cells; settings: 24 h; for sensitization to docetaxel (apoptotic cell death, PARP cleavage): 20 μM plus 10 nM docetaxel; for sensitization to erlotinib (p-EGFR reduction, PARP cleavage): 20 μM plus 2.5 μM erlotinib
Procedure: In FIG. 9A, human breast cancer MDA-MB-231 cells were treated with 20 μM of EGCG, Pro-EGCG and EGCG analogs (compounds 5, 7, 23, 30 and 31), or 10 mM of metformin for 3 hrs. Cell lysates were analyzed by Western blot using antibodies of anti-AMPK, p-AMPK, PARP, p-EGFR, EGFR or β-actin. In FIG. 9B, human breast cancer MDA-MB-231 cells were treated with 20 μM of EGCG analogs 23 and 30, 10 nM of docetaxel alone, or combined treatment with compounds 23 and 30 plus docetaxel for 24 hrs. Cell lysates were analyzed by Western blot using antibodies of anti-AMPK, p-AMPK, PARP, p-EGFR, EGFR or β-actin. In FIG. 9C, cells were incubated in medium (0.1% BSA without FBS) containing 20 μM of 23, 30, 2.5 μM of Erlotinib (Eb) alone or the combinations as indicated for 24 hrs. Cell lyses were analyzed by Western blot using antibodies of anti-AMPK, p-AMPK, PARP, p-EGFR, EGFR or β-actin.
The Western blot analysis was performed as follows: A whole cell extract was prepared from the treated cells as described previously (Landis-Piwowar et al., Cancer research, 2007, 67: 4303-4310; Chen et al., Cancer research, 2007, 67: 1636-1644; Chen et al., Biochemical pharmacology, 2005, 69: 1421-1432). The cell extracts (30 μg) were then separated by an SDS-PAGE gel and transferred to nitrocellulose membranes. The membrances were blotted by specific antibodies including anti-AMPK, p-AMPK, EGFR, p-EGFR (Cell Signaling Tech. Danvers, Mass.), PARP (Enzo Life Sciences, Plymouth Meeting, Pa.), actin (Santa Cruz Biotechnology, Santa Cruz, Calif.). The membranes were visualized by enhanced chemiluminescence, as described previously (Landis-Piwowar et al., Cancer research, 2007, 67: 4303-4310; Chen et al., Cancer research, 2007, 67: 1636-1644; Chen et al., Biochemical pharmacology, 2005, 69: 1421-1432).
In FIG. 9A, human breast cancer MDA-MB-231 cells were treated with 20 μM of EGCG, Pro-EGCG and other EGCG analogs (compounds 5, 7, 23, 30 and 31), or 10 mM of metformin for 3 hrs. Cell lysates were analyzed by Western blot using antibodies of anti-AMPK, p-AMPK, PARP, p-EGFR, EGFR or β-actin. In FIG. 9B, human breast cancer MDA-MB-231 cells were treated with 20 μM of EGCG analogs 23 and 30, 10 nM of docetaxel alone, or combined treatment with compounds 23 and 30 plus docetaxel for 24 hrs.

[2] = tested on: CD44high/CD24low cell population of MDA-MB-231 cells; experiment: Flow cytometry of CD44high/CD24low cell population in MDA-MB-231 cells; settings: 48 h
Procedure: The MDA-MB-231 cells were treated with the indicated concentrations of compounds 23 and 30 for 48 hours, followed by flow cytometry analysis. Columns show mean of three experiments; bars, SD; **, p<0.01; *, p<0.1.
The treated cells were washed once with phosphate-buffered saline (PBS) and then harvested with Cell Dissociation Buffer (enzyme-free, Invitrogen, cat. #13150-016). Detached cells were washed with PBS containing 1% FCS (a wash buffer), and resuspended in the wash buffer (1,000 cells/100 μl). The cells were stained with combinations of fluorochrome-conjugated monoclonal antibodies obtained from BD Biosciences (San Diego, Calif.) against human CD44 (FITC; cat. #555478) and CD24 (PE; cat. #555428) or their respective isotype controls at concentrations recommended by the manufacturer and incubated at 4° C. in the dark for 30 to 40 min. The labeled cells were washed in the wash buffer, then fixed in PBS containing 1% paraformaldehyde, and then analyzed on a FACSVantage (BD Biosciences) (Sheridan et al. Breast Cancer Res. (2006) 8, R59).
The flow cytometry analysis was performed as follows: The treated cells were washed once with phosphate-buffered saline (PBS) and then harvested with Cell Dissociation Buffer (enzyme-free, Invitrogen, cat. #13150-016). Detached cells were washed with PBS containing 1% FCS (a wash buffer), and resuspended in the wash buffer (1,000 cells/100 μl). The cell were stained with combinations of fluorochrome-conjugated monoclonal antibodies obtained from BD Biosciences (San Diego, Calif., USA) against human CD44 (FITC; cat. #555478) and CD24 (PE; cat. #555428) or their respective isotype controls at concentrations recommended by the manufacturer and incubated at 4° C. in the dark for 30 to 40 min. The labeled cells were washed in the wash buffer, then fixed in PBS containing 1% paraformaldehyde, and then analyzed on a FACSVantage (BD Biosciences) (Sheridan et al., Breast Cancer Res., 2006, 8: R59).
Metformin could selectively target cancer stem cells and reduce the CD44high/CD24low cell population in TNBC cells through activation of AMPK signaling (Hirsch et al., Cancer Research, 2009, 69: 7507-7511). To determine whether EGCG analogs 23 and 30 can reduce the stem cell population in the breast cancer cells, the human breast cancer MDA-MB-231 cells were treated with different concentrations of compounds 23 and 30 for 48 hours. The treated cells were stained with special antibodies against human CD44 (FITC), CD24 (PE) or their respective isotype controls, followed by washing, fixing and analysed by flow cytometry.

[3] = tested on: mTOR pathway (phosphor-p70-S6K); experiment: mTOR pathway, phosphor-p70-S6K Western blot, MDA-MB-231 cells; settings: 3 h
Procedure: (§1) (A) EGCG analogs 23 and 30 inhibited breast cancer cell proliferation. MDA-MB-231 cells were treated with indicated concentrations of 23, 30 or metformin for 24 h, followed by a MTT assay. *, P<0.1; **, P<0.01. Columns, mean of three experiments; bars, SD. (B) EGCG analogs 23 and 30 activated AMPK at a dose-dependent manner, measured by elevated level of phosphor-AMPKα and its downstream proteins of phosphor-Raptor. […] MDA-MB-231 cells were treated with indicated concentrations of 23 or 30 for 3 h, followed by Western blot analysis with the indicated antibodies. The numbers underneath the Western results of p-AMPKα indicated normalized phosphor-AMPKα/β-actin ratios. […]
(§2) The Western blot analysis was performed as follows: A whole cell extract was prepared from the treated cells as described previously (Landis-Piwowar et al., Cancer research, 2007, 67: 4303-4310; Chen et al., Cancer research, 2007, 67: 1636-1644; Chen et al., Biochemical pharmacology, 2005, 69: 1421-1432). The cell extracts (30 μg) were then separated by an SDS-PAGE gel and transferred to nitrocellulose membranes. […]

[4] = tested on: p21 protein; experiment: p21 protein level, Western blot, MDA-MB-231 cells; settings: 3 h
Procedure: as §1, §2

Compound | sensitization to docetaxel (apoptotic cell death, PARP cleavage) [1] | sensitization to erlotinib (p-EGFR reduction, PARP cleavage) [1] | decrease of the CD44high/CD24low population ([2]; 10 μM) | decrease of the CD44high/CD24low population ([2]; 20 μM) | reduction of CD44high/CD24low cell population (in words) [2] | phosphor-p70-S6K level [3] | p21 protein level [4]
Nc1ccc(C(=O)O[C@H]2Cc3ccccc3C[C@H]2OC(=O)c2ccc(N)cc2)cc1 [Compound 30] | sensitize these TNBC cells to Docetaxel | sensitize these TNBC cells to the EGFR inhibitor Erlotinib | 43.3% | 71.7% | can reduce the CD44high/CD24low cell population | decreased phosphor-p70-S6K | increased levels of p21 protein
O=C(O[C@H]1Cc2ccccc2C[C@H]1OC(=O)c1cc(O)c(Br)c(O)c1)c1cc(O)c(Br)c(O)c1 [Compound 23] | sensitize these TNBC cells to Docetaxel | sensitize these TNBC cells to the EGFR inhibitor Erlotinib | – | – | can reduce the CD44high/CD24low cell population | decreased phosphor-p70-S6K | increased levels of p21 protein
